What was measured:
[1] = molecular target: T1, activated BTK enzyme (Homo sapiens, UniProt Q06187); assay: Omnia assay for potency assessment against BTK; format: biochemical; conditions: BTK inhibition assay; [BTK]=5 nM, [ATP]=40 μM, [Y5-Sox]=10 μM
T1 construct: purchased Life Technologies PV3363
Source text: Omnia Assay Protocol for Potency Assessment Against BTK
The protocol below describes an assay to measure potency of compounds against the activated BTK enzyme. The mechanics of the assay platform are best described by the vendor (Life Technologies, Carlsbad, Calif.) on their website at the following URLs: www.lifetechnologies.com/us/en/home/life-science/drug-discovery/target-and-lead-identification-and-validation/kinasebiology/kinase-activity-assays/omnia-kinase-assays/omnia-kinase-principle.html and tools.lifetechnologies.com/content/sfs/manuals/omnia_kinase_assay_man.pdf
Briefly, 10× stocks of BTK (PV3363) from Life Technologies, 1.13×ATP (AS00lA) and Sox conjugated peptide substrates, Y5-Sox, (KZN305l) were prepared in 1× kinase reaction buffer consisting of 20 mM Tris, pH 7.5, 5 mM MgCl2, 1 mM EGTA, 5 mM (3-glycerophosphate, 5% glycerol (10× stock, KB002A) and 0.2 mM DTT (DS00lA). 5 μL of each enzyme were pre-incubated in a Corning (#3574) 384-well, white, non-binding surface microtiter plate (Corning, N.Y.) for 30 min. at room temperature with a 0.5 μL volume of 50% DMSO or serially diluted compounds prepared in 50% DMSO. Kinase reactions were started with the addition of […] of the ATP/Tyr-Sox peptide substrate Y5 mix and monitored every 71 seconds for 60 minutes at λex360/λem485 in a Synergy4 plate reader from BioTek (Winooski, Vt.). At the conclusion of each assay, progress curves from each well were examined for linear reaction kinetics and fit statistics (R2, 95% confidence interval, absolute sum of squares). Initial velocity (0 minutes to ˜30 minutes) from each reaction was determined from the slope of a plot of relative fluorescence units vs time (minutes) and then plotted against inhibitor concentration to estimate IC50 from log [Inhibitor] vs Response, Variable Slope model in GraphPad Prism from GraphPad Software (San Diego, Calif.).
Reagent conditions for the assay are:
[BTK]=5 nM, [ATP]=40 μM, [Y5-Sox]=10 μM (ATP KMapp˜36 μM).
The compound numbers correspond to the compound numbers in the examples.

[2] = molecular target: T2, BTK in Ramos human Burkitt lymphoma cells (Homo sapiens, UniProt Q06187); assay: BTK Ramos cellular assay (BTK occupancy); format: cell-based; conditions: concentration producing 50% occupancy of BTK, 1 hour incubation with compound
T2 construct: Compounds of this invention were assayed in Ramos human Burkitt lymphoma cells; endogenous in cells; host or cells: Ramos human Burkitt lymphoma cells
Protocol: BTK activity in Ramos cells, in the presence of a compound of the invention, can be measured by 3 different methods: 1) inhibition of autophosphorylation of BTK; 2) inhibition of phosphorylation of the immediate BTK surrogate PLCγ2; and 3) BTK occupancy. […] In this instance, BTK occupancy was chosen and is described below.
Compounds of this invention were assayed in Ramos human Burkitt lymphoma cells. Ramos cells were grown in suspension in T175 flasks, spun down, resuspended to a concentration of 2×10^6 cells per mL in serum-free media and incubated for 1 hour. Compound was added to Ramos cells to a final concentration of 500, 166.7, 55.6, 18.5, 6.2, 2.1, and 0.7 nM. Ramos cells were incubated with compound for 1 hour, washed with PBS and lysed in 1004 of BioRad lysis Buffer. Cell lysates were incubated with a biotinylated covalent probe (compound 1-215 disclosed in U.S. published application number 2010/0029610, incorporated by reference in its entirety) at a final concentration of 1 μM in a PBS, 0.05% Tween-20, 1% BSA solution for 1 h at room temperature. Standards and samples were transferred to a streptavidin-coated 96-well ELISA plate and mixed while shaking for 1 h at room temperature. The α-Btk antibody (BD 611116, 1:1000 dilution in PBS+0.05% Tween-20+0.5% BSA) was then added and incubated for 1 h at room temperature. After wash, goat α-mouse-HRP (1:5000 dilution in PBS+0.05% Tween-20+0.5% BSA) was added and incubated for 1 h at room temperature. The ELISA was developed with addition of tetramethyl benzidine (TMB) followed by Stop Solution and read at OD 450 nm. The standard curve (11.7-3000 pg/μL) was generated with human full-length recombinant Btk protein and plotted using a 4 parameter curve fit in Gen5 software. Uninhibited Btk detected from samples was normalized to μg total protein as determined by BCA protein analysis (Pierce Cat. 23225).
The results of this assay show the concentration of compound producing 50% occupancy of BTK. This level of occupancy empirically translates to a level of 50% inhibition of BTK activity (both as measured by autophosphorylation and by phosphorylation of PLCγ2). […] The compound numbers correspond to the compound numbers in the examples.

T2 sequence (Q06187 whole entry): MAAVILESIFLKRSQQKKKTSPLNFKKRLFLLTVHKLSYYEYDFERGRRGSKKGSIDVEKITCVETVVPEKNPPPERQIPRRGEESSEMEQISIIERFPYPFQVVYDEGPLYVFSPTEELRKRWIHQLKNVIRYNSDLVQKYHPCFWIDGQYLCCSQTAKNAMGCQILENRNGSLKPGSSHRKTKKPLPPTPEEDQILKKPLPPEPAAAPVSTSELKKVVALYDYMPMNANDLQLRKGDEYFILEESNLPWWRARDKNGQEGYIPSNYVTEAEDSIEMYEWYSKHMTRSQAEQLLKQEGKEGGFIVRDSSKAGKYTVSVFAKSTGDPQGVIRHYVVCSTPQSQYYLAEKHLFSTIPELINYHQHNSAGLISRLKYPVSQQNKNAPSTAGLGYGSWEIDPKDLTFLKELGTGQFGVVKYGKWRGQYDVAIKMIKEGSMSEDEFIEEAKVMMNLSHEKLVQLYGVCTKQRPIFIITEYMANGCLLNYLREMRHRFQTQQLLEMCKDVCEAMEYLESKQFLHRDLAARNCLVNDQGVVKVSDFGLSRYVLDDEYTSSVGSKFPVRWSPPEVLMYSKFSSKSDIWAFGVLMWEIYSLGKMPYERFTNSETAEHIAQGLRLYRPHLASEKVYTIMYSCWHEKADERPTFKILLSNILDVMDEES
T1 sequence (Q06187 whole entry): as above

SMILES	IC50 [1] [µM]	EC50 [2] [µM]	melting point [°C]
C=CC(=O)N1CCC[C@@H](Nc2nc(Nc3ccc4c(c3)CCN(C3CCC3)C4)ncc2F)C1 [Compound I-42, (R)-1-(3-((2-((2-cyclobutyl-1,2,3,4-tetrahydroisoquinolin-6-yl)amino)-5-fluoropyrimidin-4-yl)amino)piperidin-1-yl)prop-2-en-1-one]	< 0.01	< 0.01	–
C=CC(=O)N1CCC[C@@H](Nc2nc(Nc3ccc4c(c3)CCN(CC3CC3)C4)ncc2F)C1 [Compound I-43, (R)-1-(3-((2-((2-(cyclopropylmethyl)-1,2,3,4-tetrahydroisoquinolin-6-yl)amino)-5-fluoropyrimidin-4-yl)amino)piperidin-1-yl)prop-2-en-1-one]	< 0.01	< 0.01	–
C=CC(=O)N1CCC[C@@H](Nc2nc(Nc3ccc4c(c3)CCN(C3CC3)C4)ncc2F)C1 [Compound I-44, (R)-1-(3-((2-((2-Cyclopropyl-1,2,3,4-tetrahydroisoquinolin-6-yl)amino)-5-fluoropyrimidin-4-yl)amino)piperidin-1-yl)prop-2-en-1-one]	< 0.01	0.01 to 0.1	–
C=CC(=O)N1CCC[C@@H](Nc2nc(Nc3ccc4c(c3)CCN(C(C)(C)C)C4)ncc2F)C1 [Compound I-45, (R)-1-(3-((2-((2-(tert-Butyl)-1,2,3,4-tetrahydroisoquinolin-6-yl)amino)-5-fluoropyrimidin-4-yl)amino)piperidin-1-yl)prop-2-en-1-one]	< 0.01	< 0.01	–
C=CC(=O)N1CCC[C@@H](Nc2nc(Nc3ccc4c(c3)CN(C3CCC3)CC4)ncc2F)C1 [Compound I-46, (R)-1-(3-(2-(2-Cyclobutyl-1,2,3,4-tetrahydroisoquinolin-7-ylamino)-5-fluoropyrimidin-4-ylamino)piperidin-1-yl)prop-2-en-1-one]	< 0.01	< 0.01	–
C=CC(=O)N1CCC[C@@H](Nc2nc(Nc3ccc4c(c3)CN(CC3CC3)CC4)ncc2F)C1 [Compound I-47, (R)-1-(3-(2-(2-(Cyclopropylmethyl)-1,2,3,4-tetrahydroisoquinolin-7-ylamino)-5-fluoropyrimidin-4-ylamino)piperidin-1-yl)prop-2-en-1-one]	< 0.01	< 0.01	80 to 82
C=CC(=O)N1CCC[C@@H](Nc2nc(Nc3ccc4c(c3)CN(C3CC3)CC4)ncc2F)C1 [Compound I-48, (R)-1-(3-(2-(2-Cyclopropyl-1,2,3,4-tetrahydroisoquinolin-7-ylamino)-5-fluoropyrimidin-4-ylamino)piperidin-1-yl)prop-2-en-1-one]	< 0.01	< 0.01	105 to 107
C=CC(=O)N1CCC[C@@H](Nc2nc(Nc3ccc4c(c3)CCCN(CC3COC3)C4)ncc2F)C1 [Compound I-50, (R)-1-(3-((5-Fluoro-2-((2-(oxetan-3-ylmethyl)-2,3,4,5-tetrahydro-1H-benzo[c]azepin-7-yl)amino)pyrimidin-4-yl)amino)piperidin-1-yl)prop-2-en-1-one]	< 0.01	0.01 to 0.1	–
C=CC(=O)N1CCC[C@@H](Nc2nc(Nc3ccc4c(c3)CCCN(C3CC3)C4)ncc2F)C1 [Compound I-51, (R)-1-(3-((2-((2-Cyclopropyl-2,3,4,5-tetrahydro-1H-benzo[c]azepin-7-yl)amino)-5-fluoropyrimidin-4-yl)amino)piperidin-1-yl)prop-2-en-1-one]	< 0.01	0.01 to 0.1	–
C=CC(=O)N1CCC[C@@H](Nc2nc(Nc3ccc4c(c3)CCCN(C)C4=O)ncc2F)C1 [Compound I-52, (R)-7-((4-((1-Acryloylpiperidin-3-yl)amino)-5-fluoropyrimidin-2-yl)amino)-2-methyl-2,3,4,5-tetrahydro-1H-benzo[c]azepin-1-one]	< 0.01	0.01 to 0.1	–
C=CC(=O)N1CCC[C@@H](Nc2nc(Nc3ccc4c(c3)CNCCC4)ncc2F)C1 [Compound I-53, (R)-1-(3-(5-Fluoro-2-(2,3,4,5-tetrahydro-1H-benzo[c]azepin-8-ylamino)pyrimidin-4-ylamino)piperidin-1-yl)prop-2-en-1-one]	< 0.01	< 0.01	–
C=CC(=O)N1CCC[C@@H](Nc2nc(Nc3ccc4c(c3)CN(C)CCC4)ncc2F)C1 [Compound I-55, (R)-1-(3-(5-Fluoro-2-(2-methyl-2,3,4,5-tetrahydro-1H-benzo[c]azepin-8-ylamino)pyrimidin-4-ylamino)piperidin-1-yl)prop-2-en-1-one]	< 0.01	0.01 to 0.1	–
C=CC(=O)N1CCC[C@@H](Nc2nc(Nc3ccc4c(c3)CCNCC4)ncc2F)C1 [Compound I-57, (R)-1-(3-(5-Fluoro-2-(2,3,4,5-tetrahydro-1H-benzo[d]azepin-7-ylamino)pyrimidin-4-ylamino)piperidin-1-yl)prop-2-en-1-one]	< 0.01	0.01 to 0.1	–
C=CC(=O)N1CCC[C@@H](Nc2nc(Nc3ccc4c(c3)CCN(C3CC3)CC4)ncc2F)C1 [Compound I-60, (R)-1-(3-(2-(3-Cyclopropyl-2,3,4,5-tetrahydro-1H-benzo[d]azepin-7-ylamino)-5-fluoropyrimidin-4-ylamino)piperidin-1-yl)prop-2-en-1-one]	< 0.01	0.01 to 0.1	–
C=CC(=O)N1CCC[C@@H](Nc2nc(Nc3ccc4c(c3)C(=O)N(C)C4)ncc2F)C1 [Compound I-62]	< 0.01	0.101 to 1	–
C=CC(=O)N1CCC[C@@H](Nc2nc(Nc3ccc4c(c3)C(=O)N(C)C4=O)ncc2F)C1 [Compound I-63, (R)-5-((4-((1-Acryloylpiperidin-3-yl)amino)-5-fluoropyrimidin-2-yl)amino)-2-methylisoindoline-1,3-dione]	< 0.01	0.01 to 0.1	–
C=CC(=O)N1CCC[C@@H](Nc2nc(Nc3ccc4c(c3)CN(C)C4)ncc2C(F)(F)F)C1 [Compound I-64, (R)-1-(3-((2-((2-Methylisoindolin-5-yl)amino)-5-(trifluoromethyl)pyrimidin-4-yl)amino)piperidin-1-yl)prop-2-en-1-one]	< 0.01	< 0.01	–
C=CC(=O)N1CCC[C@@H](Nc2nc(Nc3ccc4c(c3)CNC4)ncc2C(F)(F)F)C1 [Compound I-65, (R)-1-(3-((2-(Isoindolin-5-ylamino)-5-(trifluoromethyl)pyrimidin-4-yl)amino)piperidin-1-yl)prop-2-en-1-one]	< 0.01	< 0.01	–
C#CCN1Cc2ccc(Nc3ncc(F)c(N[C@@H]4CCCN(C(=O)C=C)C4)n3)cc2C1 [Compound I-67, (R)-1-(3-((5-Fluoro-2-((2-(prop-2-yn-1-yl)isoindolin-5-yl)amino)pyrimidin-4-yl)amino)piperidin-1-yl)prop-2-en-1-one]	< 0.01	0.01 to 0.1	–
